Laboratory results taken from patent US20040009973A1, “Novel potassium channels modulators” (4SC AG, priority 2002, published 2004).

Each compound was assayed against T1, BK potassium channel, cloned hSlo (α-hSlo and β-bSlo) in CHO cells (Homo sapiens, UniProt Q12791) (assay: Em-Assay: membrane potential with voltage sensitive dye DiBAC(4)3, fluorescence plate reader). Conditions: compound 50 μM; NS004 25 or 50 μM; hSlo transfected CHO cells; change in DiBAC(4)3 fluorescence intensity.
T1 construct: expressed in transfected cells; host or cells: CHO cells, permanently transfected
Assay type: cell-based
From the text: The large conductance, voltage-dependent and Ca^2+-activated potassium channel BK is a potassium selective ion channel and belongs to the subfamily of KCa channels. Four BK alpha-subunits form a functional channel that can be regulated by intracellular Ca^2+ concentration, membrane voltage, and other mechanisms like phosphorylation states or beta subunits. To test the biological activity of the compounds, we applied two different techniques, a fluorescence based assay using a voltage sensitive dye (Em-Assay) as well as exploiting electrophysiological methods.
CHO cells permanently transfected with cloned hSlo (α-hSlo and β-bSlo), yielding typical BK potassium currents (Zhou et al., Pflügers Arch., 436: 725-734 (1998), were used for the evaluation of compound activity. Activation or inhibition of BK channels in these cells leads to a change of the electrochemical gradient causing a hyperpolarized or depolarised membrane potential, respectively.
To determine changes in the membrane potential of the cells we used the voltage sensitive dye DiBAC(4)3 (Molecular Probes) in a kinetic assay system using a fluorescent plate reader (Manning and Sontheimer, J. Neurosci, Meth., 91: 73-81 (1999). The anionic bis-oxonol DiBAC(4)3 is a voltage sensitive dye which partitions from the extracellular environment into the cell where it reversibly binds to intracellular proteins, a kinetic process depending on the membrane potential of the cell. At depolarised potentials (i.e. at a reduced K^+ efflux due to blocked K^+ channels) the dye accumulates in the cell leading to an increased fluorescence intensity, due to its increased fluorescence if bound to cellular proteins. At hyperpolarized potentials (i.e. at an increased K^+ efflux due to the opening of K^+ channels), the dye partitions out of the cell causing a decreased fluorescence intensity.
hSlo transfected CHO cells where maintained in DMEM supplemented with 10% FCS, 250 μg/ml Geneticin, 100 μg/ml Hygromycin, 1×HT-Supplement, and 1×Non-essential Amino Acids and cultured in a humidified CO2 incubator. After trypsination, cells where plated with a density of 5×10^4 cells per well on a clear 96-well plate and incubated for 24 h. Cells where washed once with PBS, once with PBS containing 20 mM HEPES (adjusted to pH 7.4 with NaOH) and 2 μM DIBAC(4)3 (DPBS-DiBAC solution). 180 μl of the dPBS-DiBAC solution was then added to the cells and the plate incubated for 30-60 min at 37° C. During this time the dye could partition into the cells and reach a certain steady-state distribution, depending on the resting membrane potential. Test and reference compounds were stored as DMSO stock solutions and diluted in dPBS-DiBAC solution to the desired concentration.
Fluorescence intensity (Ex.: 485 nm/Em.: 520 nm) of each well was detected in the plate reader (Fluostar, BMG) every 60 seconds. After recording the baseline fluorescence for 7 minutes, 20 μl test—and reference compounds were added and the fluorescence intensity was detected for additional 15 minutes. Background was subtracted, data values were normalized and expressed as a change in fluorescence intensity against time. The change in fluorescence intensity caused by the test compounds was evaluated, compared to the effect of the reference compound NS004, and the ratio was determined (see Table I).

T1 sequence (Q12791 1-1178 isoform Q12791-5): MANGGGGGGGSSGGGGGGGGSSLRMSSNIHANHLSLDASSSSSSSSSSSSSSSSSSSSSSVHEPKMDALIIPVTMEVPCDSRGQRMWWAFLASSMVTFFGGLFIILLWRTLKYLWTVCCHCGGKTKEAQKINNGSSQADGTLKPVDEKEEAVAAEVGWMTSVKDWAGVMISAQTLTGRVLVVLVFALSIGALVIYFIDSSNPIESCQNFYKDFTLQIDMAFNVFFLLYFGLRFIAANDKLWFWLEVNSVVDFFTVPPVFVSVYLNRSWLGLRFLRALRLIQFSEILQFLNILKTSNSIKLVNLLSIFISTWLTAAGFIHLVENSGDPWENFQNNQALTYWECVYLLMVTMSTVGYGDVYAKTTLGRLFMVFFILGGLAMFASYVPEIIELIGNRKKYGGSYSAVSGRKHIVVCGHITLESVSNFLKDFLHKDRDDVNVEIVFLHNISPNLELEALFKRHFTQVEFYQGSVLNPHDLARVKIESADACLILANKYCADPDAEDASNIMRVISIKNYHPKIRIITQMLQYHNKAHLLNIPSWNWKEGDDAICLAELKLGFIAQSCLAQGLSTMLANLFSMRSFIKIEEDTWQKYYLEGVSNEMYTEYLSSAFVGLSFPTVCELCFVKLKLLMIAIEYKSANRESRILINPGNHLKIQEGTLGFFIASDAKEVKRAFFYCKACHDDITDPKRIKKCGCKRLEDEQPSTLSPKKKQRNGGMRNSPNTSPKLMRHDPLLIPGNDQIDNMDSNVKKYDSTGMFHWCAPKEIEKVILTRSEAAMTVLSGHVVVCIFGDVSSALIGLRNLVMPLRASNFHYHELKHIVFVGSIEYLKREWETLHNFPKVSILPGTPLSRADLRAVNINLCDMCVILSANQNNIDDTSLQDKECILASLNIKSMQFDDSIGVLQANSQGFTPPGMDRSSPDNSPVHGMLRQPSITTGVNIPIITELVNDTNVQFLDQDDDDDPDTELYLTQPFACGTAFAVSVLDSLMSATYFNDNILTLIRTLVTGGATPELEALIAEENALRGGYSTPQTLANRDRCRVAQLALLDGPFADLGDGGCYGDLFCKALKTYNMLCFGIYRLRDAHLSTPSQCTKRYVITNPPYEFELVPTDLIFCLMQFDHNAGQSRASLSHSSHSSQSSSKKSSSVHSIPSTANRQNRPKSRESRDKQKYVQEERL
T1 sequence (Q28067 2-191 partner limits assumed): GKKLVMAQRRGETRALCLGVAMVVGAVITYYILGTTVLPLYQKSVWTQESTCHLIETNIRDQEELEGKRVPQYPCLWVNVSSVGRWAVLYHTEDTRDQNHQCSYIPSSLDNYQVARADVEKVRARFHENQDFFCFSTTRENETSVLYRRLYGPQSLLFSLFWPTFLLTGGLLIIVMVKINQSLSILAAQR

Row | Compound | Em effect: ratio of the compound effect compared to the maximal effect of NS004
1 | CC(C)(C)c1ccc(CNc2cc(NCc3ccc(C(F)(F)F)cc3)cc(C(F)(F)F)c2)cc1 [Compound 84] | + (0-1 = +)
2 | FC(F)(F)c1ccccc1CNc1ccc(NCc2ccccc2C(F)(F)F)cc1 [Compound 97] | + (0-1 = +)
3 | CC(C)(C)c1ccc(CNc2cccc(NCc3cccc(Cl)c3)c2)cc1 [Compound 42, N-(4tert-butylbenzyl)-N′-(3-chloro-benzyl)-benzene-1,3-diamine] | + (0-1 = +)
4 | Clc1ccccc1CNc1cccc(NCc2ccccc2Cl)c1 [Compound 32] | + (0-1 = +)
5 | Fc1cccc(F)c1CNc1cccc(NCc2c(F)cccc2F)c1 [Compound 34, N,N′-bis-(2,6-difluorobenzyl)-benzene-1,3-diamine] | + (0-1 = +)
6 | Fc1cccc(CNc2cccc(NCc3csc4ccc(Cl)cc34)c2)c1 [Compound 60] | + (0-1 = +)
7 | Clc1cc(NCc2ccc(-c3csnn3)cc2)ccc1NCc1ccc(-c2csnn2)cc1 [Compound 88] | + (0-1 = +)
8 | Fc1cccc(Cl)c1CNc1ccc(NCc2c(F)cccc2Cl)cc1 [Compound 92] | + (0-1 = +)
9 | CC(C)(C)c1ccc(CNc2cccc(NCc3ccc(C(C)(C)C)cc3)c2)cc1 [Compound 36, N,N′-bis-(4-tert-butylbenzyl)-benzene-1,3-diamine] | ++ (>1-1.5 = ++)
10 | FC(F)(F)c1ccc(CNc2ccc(NCc3ccc(C(F)(F)F)cc3)c(Cl)c2)cc1 [Compound 105] | + (0-1 = +)
11 | CS(=O)(=O)c1ccc(CNc2cccc(NCc3c(F)cccc3F)c2)cc1 [Compound 50, N-(2,6-difluorobenzyl)-N′-(4-methanesulfonylbenzyl)-benzene-1,3-diamine] | + (0-1 = +)
12 | O=[N+]([O-])c1ccc(CNc2ccc(NCc3ccc4ccccc4c3)cc2Cl)cc1 [Compound 25] | + (0-1 = +)
13 | Fc1cccc(CNc2cccc(NCc3ccccc3Cl)c2)c1 [Compound 48] | + (0-1 = +)
14 | O=[N+]([O-])c1ccc(CNc2cccc(NCc3ccc(F)cc3)c2)o1 [Compound 46] | ++ (>1-1.5 = ++)
15 | O=[N+]([O-])c1ccc(CNc2cc(NCc3ccccc3C(F)(F)F)cc(C(F)(F)F)c2)o1 [Compound 85] | + (0-1 = +)
16 | FC(F)(F)c1cc(NCc2ccc(Br)cc2)cc(NCc2ccc(Br)cc2)c1 [Compound 2] | + (0-1 = +)
17 | COc1cccc(CNc2cccc(NCc3ccc(-c4csnn4)cc3)c2)c1 [Compound 59, N-(3-methoxybenzyl)-N′-(4-[1,2,3]thiadiazol-4-yl-benzyl)-benzene-1,3-diamine] | + (0-1 = +)
18 | COc1cccc(CNc2cc(NCc3ccc(C(F)(F)F)cc3)cc(C(F)(F)F)c2)c1 [Compound 83, N-(3-methoxybenzyl)-5-tri-fluoromethyl-N′-(4-tri-fluoromethylbenzyl)-benzene-1,3-diamine] | + (0-1 = +)
19 | FC(F)(F)c1ccccc1CNc1cccc(NCc2ccccc2C(F)(F)F)c1 [Compound 39] | ++ (>1-1.5 = ++)
20 | Fc1ccc(CNc2cccc(NCc3csc4ccc(Cl)cc34)c2)c(Cl)c1 [Compound 64, N-(5-chlorobenzo[b]thiophen-3-ylmethyl)-N′-(2-chloro-4-fluorobenzyl)-benzene-1,3-diamine] | + (0-1 = +)
21 | Fc1ccc(CNc2cccc(NCc3ccc(F)cc3Cl)c2)c(Cl)c1 [Compound 37, N,N′-bis-(2-chloro-4-fluorobenzyl)-benzene-1,3-diamine] | ++ (>1-1.5 = ++)

Row | Compound | Em effect: ratio of the compound effect compared to the maximal effect of NS004
22 | Fc1ccc(CNc2cc(NCc3ccc(F)cc3F)cc(C(F)(F)F)c2)c(F)c1 [Compound 69] | + (0-1 = +)
23 | Cc1cc(NCc2ccc(S(C)(=O)=O)cc2)ccc1NCc1ccc(S(C)(=O)=O)cc1 [Compound 86] | + (0-1 = +)
24 | Clc1ccccc1CNc1ccc(NCc2ccccc2Cl)c(Cl)c1 [Compound 96] | + (0-1 = +)
25 | CC(C)(C)c1ccc(CNc2cccc(NCc3ccc(-c4csnn4)cc3)c2)cc1 [Compound 41] | + (0-1 = +)
26 | Fc1cccc(CNc2ccc(NCc3cccc(F)c3)cc2)c1 [Compound 100, N,N′-bis(3-fluorobenzyl)-benzene-1,4-diamine] | + (0-1 = +)
27 | Cc1cc(NCc2ccc(C(F)(F)F)cc2)ccc1NCc1ccc(C(F)(F)F)cc1 [Compound 101, 2-methyl-N1,N4-bis-(4-trifluoromethylbenzyl)-benzene-1,4-diamine] | + (0-1 = +)
28 | N#Cc1cccc(CNc2cccc(NCc3ccc(C(F)(F)F)cc3)c2)c1 [Compound 68] | + (0-1 = +)
29 | FC(F)(F)c1cc(NCc2ccccc2Cl)cc(NCc2ccccc2Cl)c1 [Compound 75] | + (0-1 = +)
30 | N#Cc1ccccc1-c1ccc(CNc2cccc(NCc3ccc(-c4ccccc4C#N)cc3)c2)cc1 [Compound 30] | + (0-1 = +)
31 | FC(F)(F)c1ccccc1CNc1cccc(NCc2ccc(-c3csnn3)cc2)c1 [Compound 61, N-(4-[1,2,3]thiadiazol-4-yl-benzyl)-N′-(2-tri-fluoromethylbenzyl)-benzene-1,3-diamine] | + (0-1 = +)
32 | COc1cccc(CNc2cccc(NCc3cccc(Cl)c3)c2)c1 [Compound 58, N-(3-chlorobenzyl)-N′-(3-methoxybenzyl)-benzene-1,3-diamine] | + (0-1 = +)
33 | O=[N+]([O-])c1ccc(CNc2ccc(NCc3cccc(Cl)c3)cc2Cl)cc1 [Compound 24] | + (0-1 = +)
34 | Fc1cccc(CNc2ccc(NCc3cccc(F)c3)c(Cl)c2)c1 [Compound 107] | + (0-1 = +)
35 | Fc1ccc(CNc2ccc(NCc3ccc(F)cc3F)c(Cl)c2)c(F)c1 [Compound 106] | + (0-1 = +)
36 | Clc1cc(NCc2ccc(-c3csnn3)cc2)c(Cl)cc1NCc1ccc(-c2csnn2)cc1 [Compound 89] | + (0-1 = +)
37 | Fc1ccc(CNc2cccc(NCc3ccc(F)cc3F)c2)c(F)c1 [Compound 28, N,N′-bis-(2,4-difluorobenzyl)-benzene-1,3-diamine] | ++ (>1-1.5 = ++)
38 | FC(F)(F)c1cc(NCc2ccc3ccccc3c2)cc(NCc2ccc3ccccc3c2)c1 [Compound 4] | + (0-1 = +)
39 | Clc1cc(NCc2ccc(-c3csnn3)cc2)cc(Cl)c1NCc1ccc(-c2csnn2)cc1 [Compound 91] | + (0-1 = +)
40 | Cc1cc(NCc2ccc(-c3csnn3)cc2)ccc1NCc1ccc(-c2csnn2)cc1 [Compound 87] | + (0-1 = +)
41 | FC(F)(F)c1cc(NCc2cccc(Cl)c2)cc(NCc2cccc(Cl)c2)c1 [Compound 3] | + (0-1 = +)
42 | COc1cccc(CNc2cc(NCc3csc4ccc(Cl)cc34)cc(C(F)(F)F)c2)c1 [Compound 81] | + (0-1 = +)
